Results: patent US7994121B2, “Stable analogs of peptide and polypeptide therapeutics” (Trustees of Tufts College, priority 2003, dated 2011)
“Also recorded” adds a separate entry of the source. Like-named read-outs stand apart in the source and are kept apart here. Each block holds one compound with its values, some of them ahead of it. Square brackets hold non-standard residues; d marks the D form. Ends that are not written are not given here. Peptide text beside a SMILES is read from it. Tle = CC(C)(C)[C@H](N)C(=O)O

Key:
human DPP IV = human DPP IV (Homo sapiens, UniProt P27487); experiment: Cleavage/degradation by DPP IV, HPLC/MS; assay type: in vitro ADME; conditions: for resistance to cleavage by DPP IV: in comparison to native GLP-1; for degradation by human DPP IV: two hours of treatment with human DPP IV, versus untreated peptide
Chain of human DPP IV (P27487 whole entry): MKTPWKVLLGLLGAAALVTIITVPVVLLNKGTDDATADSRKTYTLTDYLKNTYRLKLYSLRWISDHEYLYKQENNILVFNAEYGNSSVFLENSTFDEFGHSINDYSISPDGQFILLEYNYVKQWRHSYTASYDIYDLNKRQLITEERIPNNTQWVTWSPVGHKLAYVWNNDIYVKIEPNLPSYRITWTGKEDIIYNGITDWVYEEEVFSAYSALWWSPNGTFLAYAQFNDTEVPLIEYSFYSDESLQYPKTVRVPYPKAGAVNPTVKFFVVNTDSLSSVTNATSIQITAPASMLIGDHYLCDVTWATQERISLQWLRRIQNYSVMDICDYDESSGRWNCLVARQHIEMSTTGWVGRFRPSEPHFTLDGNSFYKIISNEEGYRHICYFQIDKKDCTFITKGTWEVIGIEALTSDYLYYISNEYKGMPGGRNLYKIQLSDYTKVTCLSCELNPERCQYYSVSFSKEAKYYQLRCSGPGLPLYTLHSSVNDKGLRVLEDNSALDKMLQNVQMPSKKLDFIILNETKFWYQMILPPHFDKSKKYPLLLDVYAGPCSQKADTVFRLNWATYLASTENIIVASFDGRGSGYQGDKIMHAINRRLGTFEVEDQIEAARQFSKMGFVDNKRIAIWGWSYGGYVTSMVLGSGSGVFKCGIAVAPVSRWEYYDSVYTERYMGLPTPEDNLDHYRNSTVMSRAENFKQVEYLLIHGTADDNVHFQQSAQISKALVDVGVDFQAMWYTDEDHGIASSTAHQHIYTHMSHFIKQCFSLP
Description: However, it is most desirable to produce peptide analogs that are not only resistant to proteolysis, but also retain all or much of the biological activity of the native peptide. Accordingly, we conducted a series of experiments to ascertain whether these GLP-1 analogs which display robust resistance to degradation by DPP IV also retain biological activities of native GLP-1
TLE-modified GLP-1 analog was treated with human DPP IV for two hours, and degradation of the analog over time was compared to that of analog in the absence of DPP IV.

thrombin = thrombin (Homo sapiens, UniProt P00734); experiment: Thrombin digestion of model peptide, C18 HPLC/MS; assay type: in vitro ADME; conditions: 4 hours at 23° C., 10 nM thrombin, 0.1 M HEPES pH 8
Description: Briefly, the peptide […] (SEQ ID NO: 31) is a model substrate for thrombin. Thrombin cleaves after the arginine residue. Accordingly, the serine residue of this model peptide is the P′1 positions. WALAPR^↓SFA
To compare digestion of the model peptide analog by thrombin with that of the native model peptide, peptides were digested for 4 hours at 23° C. with 10 nM thrombin in 0.1 M HEPES pH 8, 0.14 M NaCl, 5 mM CaCl2, 0.5% PEG6000. Following digestion, C18 reverse phase HPLC of the digests was compared to the undigested peptides, and the mass spectra of the major peaks are shown for each chromatogram in FIG. 7.

[1] = cited from earlier work

Compound: GLP-1 (BM): GLP1(7-37) analog wherein the P′1 glutamic acid is substituted by 3-butyl-methyl-glycine (HAXGTFTSDVSSYLEGQAAKEFIAWLVKGRG; non-natural residues)
resistance to cleavage by DPP IV (human DPP IV): resistant to cleavage by DPP IV

Compound: CC[C@H](C)[C@H](NC(=O)[C@H](Cc1ccccc1)NC(=O)[C@H](CCC(=O)O)NC(=O)[C@H](CCCCN)NC(=O)[C@H](C)NC(=O)[C@H](C)NC(=O)[C@H](CCC(N)=O)NC(=O)CNC(=O)[C@H](CCC(=O)O)NC(=O)[C@H](CC(C)C)NC(=O)[C@H](Cc1ccc(O)cc1)NC(=O)[C@H](CO)NC(=O)[C@H](CO)NC(=O)[C@@H](NC(=O)[C@H](CC(=O)O)NC(=O)[C@H](CO)NC(=O)[C@@H](NC(=O)[C@H](Cc1ccccc1)NC(=O)[C@@H](NC(=O)CNC(=O)C(NC(=O)[C@H](C)NC(=O)[C@@H](N)Cc1c[nH]cn1)C(C)(C)C(=O)O)[C@@H](C)O)[C@@H](C)O)C(C)C)C(=O)N[C@@H](C)C(=O)N[C@@H](Cc1c[nH]c2ccccc12)C(=O)N[C@@H](CC(C)C)C(=O)N[C@H](C(=O)N[C@@H](CCCCN)C(=O)NCC(=O)N[C@@H](CCCNC(=N)N)C(=O)NCC(=O)O)C(C)C (stereo partly drawn) [GLP-1 (3DMA)]
resistance to cleavage by DPP IV (human DPP IV): resistant to cleavage by DPP IV

Compound: HAE GTFTSDVSSY LEGQAAKEFI AWLVKGRG [GLP-1 (7-37)]
degradation by human DPP IV (human DPP IV): time dependent degradation; also recorded: time dependent loss of peptide

Compound: GLP-1: exogenous GLP-1 given subcutaneously or intravenously to subjects (Deacon et al.); metabolite co-elutes with GLP-I(9-36) amide
degradation of infused GLP-1 ([1]; intravenous infusion): extensively degraded | metabolite share of the increase in plasma immunoreactivity (CO2H-terminal RIA) ([1]; thirty minutes after subcutaneous GLP-1, diabetic patients (n is 8)): 88.5+1.9% | metabolite share of the increase in plasma immunoreactivity (CO2H-terminal RIA) ([1]; thirty minutes after subcutaneous GLP-1, healthy subjects (n=8)): 78.4+3.2%

The remaining lines, values ahead:

cleavage by thrombin (thrombin): efficiently cleaved by thrombin
Compound: WALAPRSFA [unmodified peptide]

cleavage by thrombin (thrombin): not cleaved by thrombin
Compound: CC(C)C[C@H](NC(=O)[C@H](C)NC(=O)[C@@H](N)Cc1c[nH]c2ccccc12)C(=O)N[C@@H](C)C(=O)N1CCC[C@H]1C(=O)N[C@@H](CCCNC(=N)N)C(=O)N[C@H](C(=O)N[C@@H](Cc1ccccc1)C(=O)N[C@@H](C)C(=O)O)C(C)(C)C [TLE substituted peptide analog, WALAPRXFA] (H-WALAPR[Tle]FA-OH)

degradation by human DPP IV (human DPP IV): resistant to degradation by DPP IV
Compound: CC[C@H](C)[C@H](NC(=O)[C@H](Cc1ccccc1)NC(=O)[C@H](CCC(=O)O)NC(=O)[C@H](CCCCN)NC(=O)[C@H](C)NC(=O)[C@H](C)NC(=O)[C@H](CCC(N)=O)NC(=O)CNC(=O)[C@H](CCC(=O)O)NC(=O)[C@H](CC(C)C)NC(=O)[C@H](Cc1ccc(O)cc1)NC(=O)[C@H](CO)NC(=O)[C@H](CO)NC(=O)[C@@H](NC(=O)[C@H](CC(=O)O)NC(=O)[C@H](CO)NC(=O)[C@@H](NC(=O)[C@H](Cc1ccccc1)NC(=O)[C@@H](NC(=O)CNC(=O)[C@@H](NC(=O)[C@H](C)NC(=O)[C@@H](N)Cc1c[nH]cn1)C(C)(C)C)[C@@H](C)O)[C@@H](C)O)C(C)C)C(=O)N[C@@H](C)C(=O)N[C@@H](Cc1c[nH]c2ccccc12)C(=O)N[C@@H](CC(C)C)C(=O)N[C@H](C(=O)N[C@@H](CCCCN)C(=O)NCC(=O)N[C@@H](CCCNC(=N)N)C(=O)NCC(=O)O)C(C)C [TLE-modified GLP-1]
